# Data reported in US20240398824A1, “Inhibition Of Rip Kinases For Treating Neurodegenerative Disorders” (The Johns Hopkins University, priority 2018, published 2024).
# Test system: BV-2 microglia
# Assay: Real-time PCR of C1q, IL-6 and TNFα in AβO-activated BV-2 microglia
# Format: cell-based
# Parameters: key to mRNA levels of C1q / mRNA levels of IL-6 / mRNA levels of TNFα: relative expression normalized to GAPDH by 2^-ΔΔCt; PBS = 1
# Procedure: Synthetic Abeta1-42 oligomers were generated as previously described (PMID: 27834631). Hydroxyfluroisopropanol (HFIP)-treated synthethic Abeta1-42 peptides (rPeptide, Bogart, GA, USA) were dissolved in dimethylsulfoxide (DMSO) and further diluted in phosphate-buffered saline (PBS) to obtain a 250 μM stock solution. The stock solution was incubated at 4° C. for at least 24 hours and stored at −80° C. until use. Before use, the solution was centrifuged at 12,000 g for 10 minutes and the supernatant was used as an oligomeric Aβ.
# BV-2 microglial cells were cultured in DMEM media. 10^6 of BV-2 microglia in 6 well plate were treated with 2.5 μM of Abeta for 4 hrs. Total RNA from cultured cells was extracted with a RNA isolation kit (Qiagen, Valencia, CA, USA) following manufacturer's instructions. RNA concentration was measured spectrophotometrically using a NanoDrop 2000 (Thermo scientific). Subsequently, 2 μg of total RNA was reverse transcribed to cDNA using the High-Capacity cDNA Reverse Transcription System (Life Technologies, Grand Island, NY, USA). Comparative qPCR was performed using fast SYBR Green Master Mix (Life Technologies) and steponeplus real-time pcr system (Applied Biosystems, Foster City, CA, USA). The expression levels of target genes were normalized to the expression of GAPDH and calculated based on the comparative cycle threshold Ct method^−ΔΔ(2) Ct. (n=3)
# To examine the effect of RIPK2 inhibition, 10^6 of BV-2 microglia in 6 well plate were preincubated with DMSO, GSK583 (1 μM, Medchemexpress), OD361 (1 μM, Calbiochem), or Sorafenib (1 μM) for one hour. For mRNA analysis, 5 μM of AβO was treated additional for 4 hours.
# [1] = inhibitor 1 μM pretreatment, AβO 5 μM, in words
compound,measurement,setting,value
"CC(C)(C)S(=O)(=O)c1ccc2nccc(Nc3n[nH]c4ccc(F)cc34)c2c1 [GSK583, 6-(tert-butylsulfonyl)-N-(5-fluoro-1H-indazol-3-yl) quinolin-4-amine]",mRNA levels of IL-6,"BV-2 microglia preincubated 1 h with inhibitor 1 μM, then AβO 5 μM 4 h, PBS = 1 ± 0.08, Abeta alone 12.53 ± 0.59, ±SD",4.89 ± 0.23
same,mRNA levels of C1q,"BV-2 microglia preincubated 1 h with inhibitor 1 μM, then AβO 5 μM 4 h, PBS = 1 ± 0.13, Abeta alone 3.7 ± 0.06, ±SD",0.87 ± 0.14
same,mRNA levels of TNFα,"BV-2 microglia preincubated 1 h with inhibitor 1 μM, then AβO 5 μM 4 h, PBS = 1 ± 0.16, Abeta alone 16.19 ± 3.21, ±SD",3.23 ± 0.27
same,microglial activation,[1],blocked microglial activation
same,"release of multiple inflammatory mediators including C1q, IL-6 and TNFα",[1],significantly reduced
